Publication PMC8410836, “Rational design of hyperstable antibacterial peptides for food preservation” (NPJ Science of Food, 2021)
Converted amounts (≈) assume the structure as drawn. Read-outs that look alike come from different tables or passages of the source. Where a SMILES comes first, the peptide text is derived from it. Bridges are numbered along the chain shown (N, C = ends).

How the values were obtained:
[1] = target: T1, bovine trypsin (Bos taurus, UniProt P00760); assay: biochemical; details: SEM
Protocol: (§3) The amidase activity of trypsin and its inhibition was assayed using the chromogenic substrate BAPNA at pH 8.2 in 0.05 M Tris-HCl containing 0.02 M CaCl2 at 37 °C. The assay reaction contained 50 µL of trypsin solution (40–50 μg of trypsin in 1 mM HCl), 50 µL of water, and 125 µL of the substrate. The reaction was carried out at 37 °C for 10 min and stopped by addition of 0.25 mL of 30% acetic acid. […] The trypsin solution was incubated with an aliquot of inhibitor for 10 min at 37 °C and reaction started by the addition of 125 µL substrate and incubated at 37 °C for 10 min. […] The effect of varying substrate concentration (BAPNA) on bovine trypsin in the presence of fixed concentrations of peptides was studied. The inhibition constants (Ki) were evaluated using the double reciprocal and Dixon plot of the data[65],[66]. Data presented are averages and standard error calculated from two biological replicate experiments.

[2] = system: Micrococcus luteus ATCC4698
Protocol: (§1) Four Gram-positive bacteria: Listeria monocytogenes ATCC13932, Bacillus cereus ATCC11778, Staphylococcus aureus ATCC12900, and Micrococcus luteus ATCC4698 and three Gram-negative bacteria: Escherichia coli ATCC11775, Pectobacterium carotovorum MCC2112, and Salmonella typhimurium ATCC9844 were used in this study. These strains were stored at −80 °C in 25% (v/v) glycerol.
(§2) Antimicrobial assays against various bacterial cultures were done using the microdilution broth assay according to the Clinical and Laboratory Standards Institute (CLSI)[64] with some modifications. Mueller-Hinton broth was used to dilute the peptide stock and the bacterial inoculum. Inoculum was prepared from the mid-logarithmic phase culture. Each well of the microtiter plates received aliquots of 100 µL of the media containing different concentrations of peptide ranging from 0.3 to 300 µg/mL. The final concentration of bacteria in the wells was 5 × 10^5 Colony Forming Units (CFU) per mL. Ampicillin was used as positive control. For negative control, ultrapure water was used instead of peptides. Microtiter plates were incubated at 37 °C for 5–6 h with continuous shaking at 130 rpm (M. luteus cells were incubated for 7–8 h). The incubation time used for these assays was initially optimized using a 20-h incubation period. […] MIC assays were performed as three independent experiments in triplicates.

[3] = target: T1, bovine trypsin; details: BAPNA substrate, pH 8.2, 0.05 M Tris-HCl, 0.02 M CaCl2, 37 °C; double reciprocal and Dixon plot; mean and standard error of two biological replicates
Protocol: as §3

[4] = system: Escherichia coli ATCC11775
Protocol: as §1, §2

[5] = system: Salmonella typhimurium ATCC9844
Protocol: as §1, §2

[6] = system: Staphylococcus aureus ATCC12900
Protocol: as §1, §2

[7] = system: Listeria monocytogenes ATCC13932
Protocol: as §1, §2

[8] = system: Pectobacterium carotovorum MCC2112
Protocol: as §1, §2

[9] = system: Bacillus cereus ATCC11778
Protocol: as §1, §2

[10] = microdilution broth (CLSI, modified), Mueller-Hinton broth, 5 × 10^5 CFU/mL, 37 °C, 7–8 h, resazurin colour change, three independent experiments in triplicates
[11] = microdilution broth, MH broth, 5 × 10^5 CFU/mL, 37 °C, 5–6 h, resazurin

T1 sequence (P00760 24-246): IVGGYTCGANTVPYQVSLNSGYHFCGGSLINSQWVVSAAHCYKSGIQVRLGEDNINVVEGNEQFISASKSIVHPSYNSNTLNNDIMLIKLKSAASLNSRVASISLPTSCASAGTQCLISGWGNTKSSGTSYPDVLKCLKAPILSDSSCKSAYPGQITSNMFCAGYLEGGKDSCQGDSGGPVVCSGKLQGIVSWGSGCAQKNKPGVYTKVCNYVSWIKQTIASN

Row | SMILES | Ki [1] | MIC (µg/mL) M. luteus [2, 10] | MIC (µg/mL) M. luteus ([2]; ATCC4698) | MIC Escherichia coli [4, 11] | MIC Salmonella typhimurium [5, 11] | MIC Staphylococcus aureus [6, 11] | MIC Listeria monocytogenes [7, 11] | MIC Pectobacterium carotovorum [8, 11] | MIC Bacillus cereus [9, 11] | further results
1 | CC[C@H](C)[C@H](NC(=O)[C@@H](NC(=O)[C@@H](N)CO)C(C)C)C(=O)NCC(=O)N[C@H]1CSSC[C@@H](C(=O)N[C@@H](Cc2ccccc2)C(=O)N[C@H](C(=O)N[C@@H](CCCCN)C(=O)O)C(C)C)NC(=O)[C@H]([C@@H](C)CC)NC(=O)[C@@H]2CCCN2C(=O)[C@@H]2CCCN2C(=O)[C@H]([C@@H](C)CC)NC(=O)[C@H](CO)NC(=O)[C@H](CCCCN)NC(=O)[C@H]([C@@H](C)O)NC1=O [HSEP1] (H-SVIGCTKSIPPICFVK-OH; disulfide 5-13) | 230 nM | 75 µg/mL (≈ 44.4 µM) |  |  |  |  |  |  |  | 
2 | CC[C@H](C)[C@H](NC(=O)[C@@H](NC(=O)[C@@H](N)CO)C(C)C)C(=O)N[C@@H](Cc1ccccc1)C(=O)NCC(=O)N[C@H]1CSSC[C@@H](C(=O)N[C@@H](Cc2ccccc2)C(=O)N[C@H](C(=O)NCC(=O)N[C@@H](Cc2ccccc2)C(=O)N[C@@H](CCCCN)C(=O)O)C(C)C)NC(=O)[C@H]([C@@H](C)CC)NC(=O)[C@@H]2CCCN2C(=O)[C@@H]2CCCN2C(=O)[C@H]([C@@H](C)CC)NC(=O)[C@H](CO)NC(=O)CNC(=O)[C@H]([C@@H](C)O)NC1=O [HSEP2-K8G] (H-SVIFGCTGSIPPICFVGFK-OH; disulfide 6-14) |  |  | 37.5 µg/mL (≈ 19 µM) |  |  |  |  |  |  | Ki (M) against bovine trypsin [3]: failed to show any trypsin inhibition
3 | CC[C@H](C)[C@@H]1NC(=O)[C@@H]2CCCN2C(=O)[C@@H]2CCCN2C(=O)[C@H]([C@@H](C)CC)NC(=O)[C@H](CO)NC(=O)[C@H]([C@@H](C)O)NC(=O)[C@@H](NC(=O)[C@H](C)N)CSSC[C@@H](C(=O)NCC(=O)N[C@@H](CCCCN)C(=O)O)NC1=O [HSEP2-ΔHR-ΔK8] (H-ACTSIPPICGK-OH; disulfide 2-9) |  | >150 µg/mL |  |  |  |  |  |  |  | 
4 | CC[C@H](C)[C@H](NC(=O)[C@@H](NC(=O)[C@@H](N)CO)C(C)C)C(=O)N[C@@H](Cc1ccccc1)C(=O)NCC(=O)N[C@H]1CSSC[C@@H](C(=O)N[C@@H](Cc2ccccc2)C(=O)N[C@H](C(=O)NCC(=O)N[C@@H](Cc2ccccc2)C(=O)O)C(C)C)NC(=O)[C@H]([C@@H](C)CC)NC(=O)[C@@H]2CCCN2C(=O)[C@@H]2CCCN2C(=O)[C@H]([C@@H](C)CC)NC(=O)[C@H](CO)NC(=O)[C@H](CCCCN)NC(=O)[C@H]([C@@H](C)O)NC1=O [HSEP2-∆K19] (H-SVIFGCTKSIPPICFVGF-OH; disulfide 6-14) | 440 nM | 25 µg/mL (≈ 13.1 µM) |  | >150 µg/mL | >150 µg/mL | >150 µg/mL | >150 µg/mL | >150 µg/mL | >150 µg/mL | 
5 | CC[C@H](C)[C@H](NC(=O)[C@H](Cc1ccccc1)NC(=O)[C@H](CO)NC(=O)[C@@H](N)CCCNC(=N)N)C(=O)N[C@@H](Cc1ccccc1)C(=O)NCC(=O)N[C@H]1CSSC[C@@H](C(=O)N[C@@H](Cc2ccccc2)C(=O)N[C@H](C(=O)NCC(=O)N[C@@H](Cc2ccccc2)C(=O)N[C@@H](CCCCN)C(=O)O)C(C)C)NC(=O)[C@H]([C@@H](C)CC)NC(=O)[C@@H]2CCCN2C(=O)[C@@H]2CCCN2C(=O)[C@H]([C@@H](C)CC)NC(=O)[C@H](CO)NC(=O)[C@H](CCCCN)NC(=O)[C@H]([C@@H](C)O)NC1=O [HSEP3a] (H-RSFIFGCTKSIPPICFVGFK-OH; disulfide 7-15) | 55 nM | 12.5 µg/mL (≈ 5.57 µM) |  | >150 µg/mL | >150 µg/mL | >150 µg/mL | >150 µg/mL | >150 µg/mL | >150 µg/mL | 
6 | CC[C@H](C)[C@H](NC(=O)[C@@H](NC(=O)[C@H](CO)NC(=O)[C@@H](N)CCCNC(=N)N)C(C)C)C(=O)N[C@@H](Cc1ccccc1)C(=O)NCC(=O)N[C@H]1CSSC[C@@H](C(=O)N[C@@H](Cc2ccccc2)C(=O)N[C@H](C(=O)NCC(=O)N[C@H](C(=O)N[C@@H](CCCNC(=N)N)C(=O)O)[C@@H](C)O)C(C)C)NC(=O)[C@H]([C@@H](C)CC)NC(=O)[C@@H]2CCCN2C(=O)[C@@H]2CCCN2C(=O)[C@H]([C@@H](C)CC)NC(=O)[C@H](CO)NC(=O)[C@H](CCCCN)NC(=O)[C@H]([C@@H](C)O)NC1=O [HSEP3b] (H-RSVIFGCTKSIPPICFVGTR-OH; disulfide 7-15) | 500 nM | 6.25 µg/mL (≈ 2.87 µM) |  | >150 µg/mL | >150 µg/mL | >150 µg/mL | 100 µg/mL (≈ 45.9 µM) | 50 µg/mL (≈ 22.9 µM) | 50 µg/mL (≈ 22.9 µM) | 
7 | CC[C@H](C)[C@H](NC(=O)[C@@H](NC(=O)[C@H](CO)NC(=O)[C@@H](N)CCCNC(=N)N)C(C)C)C(=O)N[C@@H](Cc1ccccc1)C(=O)NCC(=O)N[C@H]1CSSC[C@@H](C(=O)N[C@@H](Cc2ccccc2)C(=O)N[C@H](C(=O)NCC(=O)N[C@@H](Cc2ccccc2)C(=O)N[C@@H](CCCCN)C(=O)O)C(C)C)NC(=O)[C@H]([C@@H](C)CC)NC(=O)[C@@H]2CCCN2C(=O)[C@@H]2CCCN2C(=O)[C@H]([C@@H](C)CC)NC(=O)[C@H](CCCCN)NC(=O)[C@H](CO)NC(=O)[C@H](CCCCN)NC(=O)[C@H]([C@@H](C)O)NC1=O [HSEP3c] (H-RSVIFGCTKSKIPPICFVGFK-OH; disulfide 7-16; N-terminus and C-terminus assumed) | 1400 nM |  | 3.125 µg/mL (≈ 1.34 µM) |  |  |  |  |  |  | MIC Escherichia coli ([4]; ATCC11775): 100 µg/mL (≈ 43 µM); MIC Salmonella typhimurium ([5]; ATCC9844): >150 µg/mL; MIC Staphylococcus aureus ([6]; ATCC12900): 150 µg/mL (≈ 64.5 µM); MIC Listeria monocytogenes ([7]; ATCC13932): 50 µg/mL (≈ 21.5 µM); MIC Pectobacterium carotovorum [8]: 50 µg/mL (≈ 21.5 µM); MIC Bacillus cereus ([9]; ATCC11778): 100 µg/mL (≈ 43 µM)
8 | CC[C@H](C)[C@H](NC(=O)[C@H](Cc1c[nH]c2ccccc12)NC(=O)[C@H](CO)NC(=O)[C@@H](N)CCCNC(=N)N)C(=O)N[C@@H](Cc1ccccc1)C(=O)N[C@H]1CSSC[C@@H](C(=O)N[C@@H](Cc2ccccc2)C(=O)N[C@H](C(=O)NCC(=O)N[C@@H](Cc2c[nH]c3ccccc23)C(=O)N[C@@H](CCCNC(=N)N)C(=O)O)C(C)C)NC(=O)[C@H]([C@@H](C)CC)NC(=O)[C@@H]2CCCN2C(=O)[C@@H]2CCCN2C(=O)[C@H]([C@@H](C)CC)NC(=O)[C@H](Cc2ccc(O)cc2)NC(=O)[C@H](CCCNC(=N)N)NC(=O)[C@H]([C@@H](C)O)NC1=O [HSEP3d] (H-RSWIFCTRYIPPICFVGWR-OH; disulfide 6-14; N-terminus and C-terminus assumed) | 370 nM |  | 3.125 µg/mL (≈ 1.3 µM) |  |  |  |  |  |  | MIC Escherichia coli ([4]; ATCC11775): >150 µg/mL; MIC Salmonella typhimurium ([5]; ATCC9844): >150 µg/mL; MIC Staphylococcus aureus ([6]; ATCC12900): >150 µg/mL; MIC Listeria monocytogenes ([7]; ATCC13932): >150 µg/mL; MIC Pectobacterium carotovorum [8]: >150 µg/mL; MIC Bacillus cereus ([9]; ATCC11778): 100 µg/mL (≈ 41.7 µM)
9 | CC[C@H](C)[C@H](NC(=O)[C@@H](NC(=O)[C@@H](N)CO)C(C)C)C(=O)NCC(=O)N[C@H]1CSSC[C@@H](C(=O)N[C@@H](Cc2ccccc2)C(=O)N[C@H](C(=O)N[C@@H](CCCCN)C(=O)O)C(C)C)NC(=O)[C@@H]2CCCN2C(=O)[C@H](CCCNC(=N)N)NC(=O)[C@@H]2CCCN2C(=O)[C@@H]2CCCN2C(=O)[C@H]([C@@H](C)CC)NC(=O)[C@H](CO)NC(=O)[C@H](CCCCN)NC(=O)[C@H]([C@@H](C)O)NC(=O)[C@H](Cc2c[nH]c3ccccc23)NC1=O [HVBBI, reference compound] (H-SVIGCWTKSIPPRPCFVK-OH; disulfide 5-15) | 370 nM | 150 µg/mL (≈ 74.4 µM) |  |  |  |  |  |  |  | 
10 | CC[C@H](C)[C@@H]1NC(=O)[C@@H]2CCCN2C(=O)[C@@H]2CCCN2C(=O)[C@H]([C@@H](C)CC)NC(=O)[C@H](CO)NC(=O)[C@H](CCCCN)NC(=O)[C@H]([C@@H](C)O)NC(=O)[C@@H]2CSSC[C@H](NC1=O)C(=O)N[C@@H](Cc1ccccc1)C(=O)N1CCC[C@H]1C(=O)N[C@@H](CC(=O)O)C(=O)NCC(=O)N[C@@H](CCCNC(=N)N)C(=O)N2 [SFTI-cyclic, reference compound] |  | no detectable inhibitory activity |  |  |  |  |  |  |  | 
